The source of these data is patent US9914733B2, “Biisoquinoline compounds and methods of treatment” (UNIVERSITY OF FLORIDA RESEARCH FOUNDATION, priority 2014, dated 2018).

The test system of test [1] is MDA-MB231 cells. The test is described as follows: Clonogenic cell survival / cell growth inhibition assay, MDA-MB231. The test is classed as cell-based, human. The settings on record: for pIC50: 48 h treatment, colonies counted after additional 10 days, read-out: IC50, drug concentration required for 50% growth inhibition; for toxicity to cells (result in words): MDA-MB231 cells, clonogenic assay. As to the method: (§1) The following human breast cancer cell lines were used in these studies: (a) Triple-positive: BT474, MCF7 and T47D, (b) Triple-negative: MDA-MB231 and MDA-MB468. Cells were grown in the following medium at 37° C. under a humidified atmosphere of 5% CO2: DMEM (BT474 cells), RPMI (MCF7 and T47D cells) and MEM (MDA-MB231 and MDA-MB468 cells). For each cell line, the medium was supplemented with 10% fetal bovine serum (Hyclone, Logan, Utah) 100 U/ml of penicillin, and 100 μg/ml of streptomycin.
(§2) Cells were trypsinized and a single cell suspension was prepared. Cells were plated at a density of 5×10^2-1×10^3 cells in 60 mm tissue culture plates. After the attachment, cells were treated with different concentrations of biisoquinolines 1a-d for 48 h. After the treatment, medium containing drug was removed and supplemented with fresh medium. Cells were allowed to grow into colonies for additional 10 days. Colonies were fixed, stained with 0.3% (w/v) methylene blue, and excess of the dye was removed after washing with PBS. Colonies containing more than fifty cells were counted and the IC50 values, i.e., drug concentrations required for 50% growth inhibition of these cell lines were determined as described in our previous studies. [Balusu, R.; Jaiswal, A. S.; Armas, M. L.; Kundu, C. N.; Bloom L, B.; Narayan S. Biochemistry 2007, 46, 13961; Jaiswal, A, S.; Banerjee, S.; Panda, H.; Bulkini, C. D.; Izumi, T.; Sarkar, F. H.; Ostrov, D. A.; Narayan, S. Mol. Cancer Res. 2009, 7, 1973] The IC50 of each compound was determined from the survival curve using the SigmaPlot-10.0 software program.
6,6′,7,7′-tetramethoxy biisoquinoline-imidazolium 1a, as well as its precursor compounds, bisamide 3a, and diimine 4a, were tested for the growth inhibitory effect on MDA-MB-231 cells by using the clonogenic cell survival assay [Balusu, R.; Jaiswal, A. S.; Armas, M. L.; Kundu, C. N.; Bloom L, B.; Narayan S. Biochemistry 2007, 46, 13961; Jaiswal, A, S.; Banerjee, S.; Panda, H.; Bulkin, C. D.; Izumi, T.; Sarkar, F. H.; Ostrov, D. A.; Narayan, S. Mol. Cancer Res. 2009, 7, 1973]. […] Then, three other methoxylated biisoquinoline-imidazolium compounds (1b-d) were tested to probe the optimal methoxy substitution pattern.

The subject of test [2] is MCF7 cells. As to the kind of experiment: Clonogenic cell growth inhibition assay, MCF7. The settings on record: for pIC50: Homo sapiens, MCF7 triple-positive breast cancer cells, 48 h treatment, colonies counted after additional 10 days, read-out: IC50, drug concentration required for 50% growth inhibition. It is filed as cell-based, human. As to the method:
as §1, §2

The test system of test [3] is T47D cells. As to the kind of experiment: Clonogenic cell growth inhibition assay, T47D. It is filed as cell-based, human. Conditions: for pIC50: Homo sapiens, T47D triple-positive breast cancer cells, 48 h treatment, colonies counted after additional 10 days, read-out: IC50, drug concentration required for 50% growth inhibition. As to the method: as §1, §2
For test [4], the system named is MDA-MB468 cells. The test is described as follows: Clonogenic cell growth inhibition assay, MDA-MB468. It is filed as cell-based. Conditions: Homo sapiens, MDA-MB-468; MDA-MB468 triple-negative breast cancer cells; 48 h treatment, colonies counted after additional 10 days; read-out: IC50, drug concentration required for 50% growth inhibition. As to the method:
as §1, §2

The test system of test [5] is BT474 cells. The test is described as follows: Clonogenic cell growth inhibition assay, BT474. The settings on record: Homo sapiens, BT-474; BT474 triple-positive breast cancer cells; 48 h treatment, colonies counted after additional 10 days; read-out: IC50, drug concentration required for 50% growth inhibition. The test is classed as cell-based. Here is the method:
as §1, §2

Where [6] appears, read: Homo sapiens, MDA-MB-231, MDA-MB231 triple-negative breast cancer cells.
[7] abbreviates: MDA-MB231 triple-negative breast cancer cells.

pIC50: −log10 of the molar value. Read-outs that look alike come from different tables or passages of the source.

`COc1ccc2c(c1OC)C(=O)O[C@@H]2[C@H]1c2c(cc3c(c2OC)OCO3)CCN1C` [noscapine, reference compound]: the pIC50 in test [1] (setting [6]) was 4.19; in test [2], 4.24. For the same molecule, the “fold higher IC50 than compound 1c” value in test [1] (MDA-MB-231 cells, IC50 of noscapine relative to IC50 of 1c) worked out at 16 folds; in test [2] (MCF7 cells, IC50 of noscapine relative to IC50 of 1c) it was 44 folds.

As to `COc1ccc2c(c1OC)CCn1c[n+]3c(c1-2)-c1ccc(OC)c(OC)c1CC3` [1b, 3,3′,4,4′-tetramethoxy-5,6,8,9-tetrahydro-6a,7a-diazadibenzo[c,g]fluorenium]chloride], the pIC50 is 4.74 in test [1] (setting [6]); 4.85 in test [1] (setting [7]); 5.10 in test [2]; 4.87 in test [3]; 5.68 in test [4]; 6.15 in test [5].

On to `COc1cc2c(cc1OC)-c1c3[n+](cn1CC2)CCc1cc(OC)c(OC)cc1-3` [1a, 2,2′,3,3′-tetramethoxy-5,6,8,9-tetrahydro-6a,7a-diazadibenzo[c,g]fluorenium]chloride], for which the pIC50 in test [1] (setting [6]) was 4.72; in test [1] (setting [7]) it was 4.68; in test [2] it was 4.46; in test [3], 4.47; in test [4] it was 5.59; in test [5], 5.51.

Turning to `COc1cccc(CCNC(=O)C(=O)NCCc2cccc(OC)c2OC)c1OC` [3b, N^1,N^2-bis(2,3-dimethoxyphenethyl)oxalamide], in test [1], the “toxicity to cells (result in words)” value is “did not show any cytotoxicity”. Besides, the “sensitivity of cells to the compound (result in words)” value in test [2] (MCF7 cells, clonogenic assay) was “resistant”; in test [3] (T47D cells, clonogenic assay), “resistant”. Further, the pIC50 is 4.45 in test [4] and 4.47 in test [5].

As to `COc1cc2c(c(OC)c1OC)CCn1c[n+]3c(c1-2)-c1cc(OC)c(OC)c(OC)c1CC3.[Cl-]` [1d, 2,2′,3,3′,4,4′-hexamethoxy-5,6,8,9-tetrahydro-6a,7a-diazadibenzo[c,g]fluorenium]chloride], the “toxicity to cells (result in words)” value in test [1] is recorded as “did not show any toxicity”.

Turning to `COc1cc2c(cc1OC)C(C1=NCCc3cc(OC)c(OC)cc31)=NCC2` [4a, 6,6′,7,7′-tetramethoxy-3,3′,4,4′-tetrahydro-1,1′-biisoquinoline], the “toxicity to cells (result in words)” value in test [1] is “non-toxic”.

As to `COc1ccc2c(c1)CCn1c[n+]3c(c1-2)-c1ccc(OC)cc1CC3` [1c, 3,3′-dimethoxy-5,6,8,9-tetrahydro-6a,7a-diazadibenzo[c,g]fluorenium]chloride], the pIC50 in test [1] (setting [6]) was 5.33; in test [1] (setting [7]) it was 5.62; in test [2], 5.89; in test [3], 6.00; in test [4], 5.74; in test [5], 6.52.
